Test results published in ChEMBL document CHEMBL4229379, “Synthesis and structure-activity relationship of novel bisindole amidines active against MDR Gram-positive and Gram-negative bacteria” (Eur J Med Chem, 2018).
Values after ≈ are worked out from the molar mass of the structure shown.

Tests used:
Escherichia coli [1] = experiment: Antibacterial activity against extended-spectrum beta-lactamase deficient Escherichia coli ATCC 25922 after 18 hrs by CLSI broth microdilution method; format: functional; conditions: ATCC 25922, 18 h
Klebsiella pneumoniae [2] = experiment: Antibacterial activity against extended-spectrum beta-lactamase deficient Klebsiella pneumoniae 7 after 18 hrs by CLSI broth microdilution method; format: functional; conditions: Klebsiella pneumoniae, 7, 18 h
[3] = test system: Staphylococcus epidermidis; experiment: Antibacterial activity against methicillin-sensitive Staphylococcus epidermidis 12-6 after 18 hrs by CLSI broth microdilution method; format: functional; conditions: 12-6, 18 h
Klebsiella pneumoniae [4] = experiment: Antibacterial activity against extended-spectrum beta-lactamase harboring Klebsiella pneumoniae ATCC 700603 after 18 hrs by CLSI broth microdilution method; format: functional; conditions: Klebsiella pneumoniae, 700603, 18 h
Staphylococcus aureus [5] = experiment: Antibacterial activity against methicillin-sensitive Staphylococcus aureus 15 after 18 hrs by CLSI broth microdilution method; format: functional; conditions: Staphylococcus aureus, 15, 18 h
[6] = test system: Stenotrophomonas maltophilia; experiment: Antibacterial activity against Stenotrophomonas maltophilia ATCC 13636 after 18 hrs by CLSI broth microdilution method; format: functional; conditions: ATCC 13636, 18 h
Klebsiella pneumoniae [7] = experiment: Antibacterial activity against extended-spectrum beta-lactamase harboring Klebsiella pneumoniae 12-8 after 18 hrs by CLSI broth microdilution method; format: functional; conditions: 12-8, 18 h
Escherichia coli [8] = experiment: Antibacterial activity against extended-spectrum beta-lactamase harboring Escherichia coli 12-15 after 18 hrs by CLSI broth microdilution method; format: functional; conditions: 12-15, 18 h
Serratia marcescens = experiment: Antibacterial activity against Serratia marcescens ATCC 21074 after 18 hrs by CLSI broth microdilution method; format: functional; conditions: ATCC 21074, 18 h
Staphylococcus aureus [9] = experiment: Antibacterial activity against methicillin-sensitive Staphylococcus aureus ATCC 29213 after 18 hrs by CLSI broth microdilution method; format: functional; conditions: ATCC 29213, 18 h
Citrobacter freundii = experiment: Antibacterial activity against Citrobacter freundii ATCC 43864 after 18 hrs by CLSI broth microdilution method; format: functional; conditions: ATCC 43864, 18 h
Pseudomonas aeruginosa [10] = experiment: Antibacterial activity against Pseudomonas aeruginosa 12-16 after 18 hrs by CLSI broth microdilution method; format: functional; conditions: 12-16, 18 h
Enterococcus faecium [11] = experiment: Antibacterial activity against vancomycin-resistant Enterococcus faecium ATCC 700221 after 18 hrs by CLSI broth microdilution method; format: functional; conditions: ATCC 700221, 18 h
Enterococcus faecium [12] = experiment: Antibacterial activity against vancomycin-sensitive Enterococcus faecium 12-3 after 18 hrs by CLSI broth microdilution method; format: functional; conditions: 12-3, 18 h
[13] = test system: Staphylococcus epidermidis; experiment: Antibacterial activity against methicillin-resistant Staphylococcus epidermidis 12-8 after 18 hrs by CLSI broth microdilution method; format: functional; conditions: 12-8, 18 h
Pseudomonas aeruginosa [14] = experiment: Antibacterial activity against Pseudomonas aeruginosa PAO1 after 18 hrs by CLSI broth microdilution method; format: functional; conditions: PAO1, 18 h
Proteus vulgaris = experiment: Antibacterial activity against Proteus vulgaris ATCC 29905 after 18 hrs by CLSI broth microdilution method; format: functional; conditions: ATCC 29905, 18 h
[15] = test system: Staphylococcus epidermidis; experiment: Antibacterial activity against methicillin-sensitive Staphylococcus epidermidis ATCC 12228 after 18 hrs by CLSI broth microdilution method; format: functional; conditions: ATCC 12228, 18 h
Proteus mirabilis = experiment: Antibacterial activity against Proteus mirabilis 12-6 after 18 hrs by CLSI broth microdilution method; format: functional; conditions: 12-6, 18 h
Staphylococcus aureus [16] = experiment: Antibacterial activity against methicillin-resistant Staphylococcus aureus 12-33 after 18 hrs by CLSI broth microdilution method; format: functional; conditions: 12-33, 18 h
[17] = Cytotoxicity against HEK293T cells assessed as reduction in cell viability after 48 hrs by MTS assay; format: cell-based, HEK-293T; conditions: human
Escherichia coli [18] = experiment: Antibacterial activity against extended-spectrum beta-lactamase deficient Escherichia coli 1515 after 18 hrs by CLSI broth microdilution method; format: functional; conditions: Escherichia coli, 1515, 18 h
Pseudomonas aeruginosa [19] = experiment: Antibacterial activity against Pseudomonas aeruginosa ATCC 27853 after 18 hrs by CLSI broth microdilution method; format: functional; conditions: ATCC 27853, 18 h
Providencia rettgeri = experiment: Antibacterial activity against Providencia rettgeri ATCC 31052 after 18 hrs by CLSI broth microdilution method; format: functional; conditions: ATCC 31052, 18 h
Klebsiella pneumoniae [20] = experiment: Antibacterial activity against extended-spectrum beta-lactamase deficient Klebsiella pneumoniae 12-4 after 18 hrs by CLSI broth microdilution method; format: functional; conditions: 12-4, 18 h
Staphylococcus aureus [21] = experiment: Antibacterial activity against methicillin-sensitive Staphylococcus aureus 12-28 after 18 hrs by CLSI broth microdilution method; format: functional; conditions: 12-28, 18 h
Enterococcus faecalis [22] = experiment: Antibacterial activity against vancomycin-sensitive Enterococcus faecalis 12-5 after 18 hrs by CLSI broth microdilution method; format: functional; conditions: 12-5, 18 h
Enterococcus faecalis [23] = experiment: Antibacterial activity against vancomycin-sensitive Enterococcus faecalis ATCC 29212 after 18 hrs by CLSI broth microdilution method; format: functional; conditions: ATCC 29212, 18 h
Staphylococcus aureus [24] = experiment: Antibacterial activity against methicillin-resistant Staphylococcus aureus ATCC 33591 after 18 hrs by CLSI broth microdilution method; format: functional; conditions: ATCC 33591, 18 h
[25] = test system: Acinetobacter calcoaceticus; experiment: Antibacterial activity against Acinetobacter calcoaceticus ATCC 19606 after 18 hrs by CLSI broth microdilution method; format: functional; conditions: ATCC 19606, 18 h
Enterococcus faecium [26] = experiment: Antibacterial activity against vancomycin-resistant Enterococcus faecium 12-1 after 18 hrs by CLSI broth microdilution method; format: functional; conditions: 12-1, 18 h
Enterobacter cloacae = experiment: Antibacterial activity against Enterobacter cloacae ATCC 43560 after 18 hrs by CLSI broth microdilution method; format: functional; conditions: ATCC 43560, 18 h
Klebsiella aerogenes = experiment: Antibacterial activity against Enterobacter aerogenes ATCC 13048 after 18 hrs by CLSI broth microdilution method; format: functional; conditions: ATCC 13048, 18 h
Escherichia coli [27] = experiment: Antibacterial activity against extended-spectrum beta-lactamase deficient Escherichia coli 12-14 after 18 hrs by CLSI broth microdilution method; format: functional; conditions: 12-14, 18 h
Enterococcus faecalis [28] = experiment: Antibacterial activity against vancomycin-resistant Enterococcus faecalis ATCC 51299 after 18 hrs by CLSI broth microdilution method; format: functional; conditions: ATCC 51299, 18 h
Enterococcus faecalis [29] = experiment: Antibacterial activity against vancomycin-resistant Enterococcus faecalis 09-9 after 18 hrs by CLSI broth microdilution method; format: functional; conditions: 09-9, 18 h
Klebsiella pneumoniae [30] = experiment: Antibacterial activity against new delhi metallo-beta-lactamase-1 harboring Klebsiella pneumoniae ATCC BAA-2146 after 18 hrs by CLSI broth microdilution method; format: functional; conditions: ATCC BAA-2146, 18 h

Compound | MIC (Escherichia coli [1]) [µg/mL] | MIC (Klebsiella pneumoniae [2]) [µg/mL] | MIC [3] [µg/mL] | MIC (Klebsiella pneumoniae [4]) [µg/mL] | MIC (Staphylococcus aureus [5]) [µg/mL] | MIC [6] [µg/mL] | MIC (Klebsiella pneumoniae [7]) [µg/mL] | MIC (Escherichia coli [8]) [µg/mL] | MIC (Serratia marcescens) [µg/mL] | MIC (Staphylococcus aureus [9]) [µg/mL] | MIC (Citrobacter freundii) [µg/mL] | MIC (Pseudomonas aeruginosa [10]) [µg/mL] | MIC (Enterococcus faecium [11]) [µg/mL] | MIC (Enterococcus faecium [12]) [µg/mL] | MIC [13] [µg/mL] | MIC (Pseudomonas aeruginosa [14]) [µg/mL] | MIC (Proteus vulgaris) [µg/mL] | MIC [15] [µg/mL] | MIC (Proteus mirabilis) [µg/mL] | MIC (Staphylococcus aureus [16]) [µg/mL] | further results
CN1CCN(C(=N)c2ccc3cc(-c4ccc(-c5cc6ccc(C(=N)N7CCN(C)CC7)cc6[nH]5)cc4)[nH]c3c2)CC1 | 8 (≈ 14.3 µM) | 16 (≈ 28.6 µM) | 2 (≈ 3.58 µM) | 64 (≈ 115 µM) | 1 (≈ 1.79 µM) | 128 (≈ 229 µM) | 16 (≈ 28.6 µM) | 8 (≈ 14.3 µM) | > 128 | 1 (≈ 1.79 µM) | 8 (≈ 14.3 µM) | > 128 | 8 (≈ 14.3 µM) | 8 (≈ 14.3 µM) | 1 (≈ 1.79 µM) | 128 (≈ 229 µM) | 16 (≈ 28.6 µM) | 1 (≈ 1.79 µM) | > 128 | 1 (≈ 1.79 µM) | CC50 at 48 h [17]: 18.9 µg/mL (≈ 33.9 µM); MIC (Escherichia coli [18]): 8 µg/mL (≈ 14.3 µM); MIC (Pseudomonas aeruginosa [19]): 64 µg/mL (≈ 115 µM); MIC (Providencia rettgeri): 8 µg/mL (≈ 14.3 µM); MIC (Klebsiella pneumoniae [20]): 64 µg/mL (≈ 115 µM); MIC (Staphylococcus aureus [21]): 1 µg/mL (≈ 1.79 µM); MIC (Enterococcus faecalis [22]): 64 µg/mL (≈ 115 µM); MIC (Enterococcus faecalis [23]): 8 µg/mL (≈ 14.3 µM); MIC (Staphylococcus aureus [24]): 1 µg/mL (≈ 1.79 µM); MIC [25]: 128 µg/mL (≈ 229 µM); MIC (Enterococcus faecium [26]): 8 µg/mL (≈ 14.3 µM); MIC (Enterobacter cloacae): 8 µg/mL (≈ 14.3 µM); MIC (Klebsiella aerogenes): 16 µg/mL (≈ 28.6 µM); MIC (Escherichia coli [27]): 8 µg/mL (≈ 14.3 µM); MIC (Enterococcus faecalis [28]): 64 µg/mL (≈ 115 µM); MIC (Enterococcus faecalis [29]): 8 µg/mL (≈ 14.3 µM); MIC (Klebsiella pneumoniae [30]): 16 µg/mL (≈ 28.6 µM)
CNC(=N)c1ccc2cc(-c3ccc(-c4cc5ccc(C(=N)NC)cc5[nH]4)cc3)[nH]c2c1 | 4 (≈ 9.51 µM) | 16 (≈ 38 µM) | 0.12 (≈ 0.285 µM) | 64 (≈ 152 µM) | 0.25 (≈ 0.595 µM) | 16 (≈ 38 µM) | 32 (≈ 76.1 µM) | 8 (≈ 19 µM) | 64 (≈ 152 µM) | 0.25 (≈ 0.595 µM) | 16 (≈ 38 µM) | 64 (≈ 152 µM) | 0.5 (≈ 1.19 µM) | 2 (≈ 4.76 µM) | 0.25 (≈ 0.595 µM) | 64 (≈ 152 µM) | 64 (≈ 152 µM) | 0.12 (≈ 0.285 µM) | 64 (≈ 152 µM) | 0.25 (≈ 0.595 µM) | CC50 at 48 h [17]: 28 µg/mL (≈ 66.6 µM); MIC (Escherichia coli [18]): 16 µg/mL (≈ 38 µM); MIC (Pseudomonas aeruginosa [19]): 16 µg/mL (≈ 38 µM); MIC (Providencia rettgeri): 64 µg/mL (≈ 152 µM); MIC (Klebsiella pneumoniae [20]): 32 µg/mL (≈ 76.1 µM); MIC (Staphylococcus aureus [21]): 0.25 µg/mL (≈ 0.595 µM); MIC (Enterococcus faecalis [22]): 2 µg/mL (≈ 4.76 µM); MIC (Enterococcus faecalis [23]): 2 µg/mL (≈ 4.76 µM); MIC (Staphylococcus aureus [24]): 0.25 µg/mL (≈ 0.595 µM); MIC [25]: 128 µg/mL (≈ 304 µM); MIC (Enterococcus faecium [26]): 0.5 µg/mL (≈ 1.19 µM); MIC (Enterobacter cloacae): 8 µg/mL (≈ 19 µM); MIC (Klebsiella aerogenes): 16 µg/mL (≈ 38 µM); MIC (Escherichia coli [27]): 8 µg/mL (≈ 19 µM); MIC (Enterococcus faecalis [28]): 2 µg/mL (≈ 4.76 µM); MIC (Enterococcus faecalis [29]): 1 µg/mL (≈ 2.38 µM); MIC (Klebsiella pneumoniae [30]): 64 µg/mL (≈ 152 µM)
